Measured values: publication PMC8453745, “Human Mass Balance and Metabolite Profiling of [^14C]‐Pamiparib, a Poly (ADP‐Ribose) Polymerase Inhibitor, in Patients With Advanced Cancer” (Clinical Pharmacology in Drug Development, 2021)
pIC50: −log10 of the molar value. Entries after “also recorded” stand apart in the source; their conditions may differ.

What was measured:
[1] = total radioactivity in whole blood of patients (LSC); assay type: in vivo, human; details: n = 4
Text: Part 1 of the study included a screening phase of up to 28 days prior to drug administration to assess eligibility. Patients were admitted to the clinical research unit (CRU) at Royal Liverpool University Hospital (Liverpool, UK)/Clatterbridge Cancer Centre NHS Foundation Trust (Bebington, Wirral, UK) on day −1 and received a single dose of 60‐mg/100 μCi [^14C]‐pamiparib orally the morning of day 1. Patients remained in the CRU until completion of assessments on day 7, when discharge criteria of ≈90% of the radioactive dose being recovered or <1% of the radioactive dose being recovered in urine and feces for 2 consecutive 24‐hour collection intervals were met. […]
Patients fasted overnight and 2 hours after oral administration of a single 60‐mg dose containing ≈100 μCi (3.7‐3.9 MBq) of [^14C]‐pamiparib with ≈240 mL of room‐temperature water or juice (orange or grape). The residual radioactivity present in each vial postdose was corrected from the dose. The radioactive dose of 100 μCi of [^14C]‐pamiparib provided minimum risk to patients according to the dosimetry calculation from a quantitative whole‐body autoradiography study in male and female Long Evans rats; the dose also provided sufficient signal for total radioactivity counting and quantitative radioprofiling in blood, plasma, and excreta (data on file). […]

[2] = metabolite profiling in pooled urine (radioprofiling, LC‐MS); assay type: in vivo, human; details: pooled urine
Experimental: Total radioactivity concentrations of [^14C]‐pamiparib in whole blood, plasma, urine, and feces were determined by liquid scintillation counting (LSC). Radioactivity in each sample was measured for 5 minutes using a Packard Tri‐Carb liquid scintillation counter model 2100TR, 2900TR, or 3100TR (Canberra Packard, Pangbourne, Berks, Australia) with the facilities for computing quench‐corrected disintegrations per minute. Metabolite identification in plasma, urine, and feces was conducted by LC‐MS. Quantitation of the metabolites present in plasma, urine, and feces was based on the profiles of radioactivity. The limit of quantitation for radioactivity in plasma, urine, and feces was set at 1% of each chromatographic analysis (run) and 10 counts per minute (cpm) peak height; therefore, radioactive peaks that were <1% of the total run or <10 cpm peak height were reported as not detected. In addition, pamiparib and standards were reported, regardless of the percentage of run or peak height.
Each aliquot of urine (about 1 mL, weighed) was added directly to liquid scintillant prior to LSC. For metabolite profiling, urine samples collected 0‐4, 4‐8, 8‐12, 12‐24, 24‐48, 48‐72, and 72‐96 hours postdose were pooled by individual patient to generate 0‐ to 96‐hour pooled samples including 0.2% of each sample by weight. The radioactivity in each pooled sample was determined by LSC. The total amount of urine collected was factored into the recovery calculation. […] Pooled urine samples were analyzed by LC‐MS, with eluent fractions collected at 10‐second intervals into 96‐well plates containing solid scintillant. Radioactivity in each well was determined using TopCount analysis, and radiochemical profiles were generated based on radioactivity counts.
Metabolic profiling was performed on plasma, urine, and feces samples using LC‐MS. Shimadzu/Nexera LC‐30AD pumps and Shimadzu/Prominence DGU‐20A5R degasser were used with Shimadzu/Prominence controller CBM‐20A. The high‐pressure liquid chromatograph (HPLC) was equipped with an autoinjector (Shimadzu/Nexera SIL‐30ACMP) set at 10°C and a fraction collector (Leap Technologies PAL HTC‐xt) set at 15°C. Thermo Fisher Scientific Q Exactive was the mass spectrometer system.

[3] = tested on: CYP1A2, CYP2B6, CYP2C9, CYP2C19; assay: CYP450 phenotyping in HLMs with all other CYP inhibitors; assay type: in vitro ADME, human; details: HLM incubation
Experimental: Metabolic stability in human liver microsomes (HLMs) and cytochrome P450 (CYP450) phenotyping assays were conducted in 3D BioOptima (Suzhou, China) using validated methodology, [13] to determine the intrinsic clearance and enzymes responsible for metabolism of pamiparib. HLMs for microsome stability was from BD Biosciences (Woburn, New York). For phenotyping, HLMs and recombinant P450 (rCYP) were from Corning (Woburn, New York). Pamiparib (1 μM) was incubated with pooled HLM (0.5 mg/mL), NADPH (1 mM), and MgCl2 (3 mM) terminated at 0, 5, 15, 30, 60, and 90 minutes. The intrinsic clearance was calculated as 0.693/(t1/2 × HLM concentration), where t1/2 is the half‐life of pamiparib determined in HLMs. For phenotyping in HLMs, pamiparib (1 μM) was incubated in the absence or presence of isoform‐selective inhibitors: 0.2 μM α‐naphthoflavone for CYP1A2, 2 μM clopidogrel for CYP2B6, 16 μM montelukast for CYP2C8, 10 μM sulfaphenazole for CYP2C9, 30 μM nootkatone for CYP2C19, 2 μM quinidine for CYP2D6, and 1 μM ketoconazole for CYP3A. The following isoform‐selective probe substrates served as positive controls: 40 μM phenacetin for CYP1A2, 100 μM bupropion for CYP2B6, 2 μM amodiaquine for CYP2C8, 5 μM diclofenac for CYP2C9, 40 μM S‐mephenytoin for CYP2C19, 5 μM dextromethorphan for CYP2D6, and 2 μM midazolam for CYP3A4. […] Pamiparib, M1, and M2 were analyzed by LC‐MS/MS.

PARP2 = tested on: PARP2; parameters: method as in PMID 33264017; details: read-out: PARP2 inhibition IC50; cited from earlier work

Compound: C[C@]12CCCN1CC1=NNC(=O)c3cc(F)cc4[nH]c2c1c34 [Pamiparib]
- AUC0‐∞ ratio blood/plasma, geometric mean (CV%) [1]: ≈ 0.764; also recorded: ≈ 0.76
- dose quantified in urine [2]: 52.5 % of the dose
- effect of all other CYP inhibitors on pamiparib metabolism [3]: nearly no effect
- pIC50 (PARP2): 9.05
